Measurements as given in PubChem BioAssay (NCI).
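Step 1: Grow cells in 96-well plates. Step 2: Expose to compound for 48 hours at 5 concentrations. Step 3: Interpolate endpoints linearly; if unreached, use highest concentration. TGI: concentration producing complete growth inhibition.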

Key:
Experiment in all cases: DTP human tumour cell line panel, 48 h
HOP-92 NSCLC = test system: HOP-92 NSCLC
RXF 393 renal = test system: RXF 393 renal
MALME-3M melanoma = test system: MALME-3M melanoma
SF-268 CNS = test system: SF-268 CNS
DU-145 prostate = test system: DU-145 prostate
NCI-H23 lung = test system: NCI-H23 lung
MDA-N = test system: MDA-N
OVCAR-3 ovarian = test system: OVCAR-3 ovarian
SK-MEL-5 melanoma = test system: SK-MEL-5 melanoma
HCT-15 colon = test system: HCT-15 colon
U251 CNS = test system: U251 CNS
EKVX NSCLC = test system: EKVX NSCLC
SF-295 CNS = test system: SF-295 CNS
NCI-H226 lung = test system: NCI-H226 lung
RPMI-8226 leukemia = test system: RPMI-8226 leukemia
OVCAR-4 ovarian = test system: OVCAR-4 ovarian
SNB-19 CNS = test system: SNB-19 CNS
HCT-116 colon = test system: HCT-116 colon
SR leukemia = test system: SR leukemia
IGROV1 ovarian = test system: IGROV1 ovarian
MOLT-4 leukemia = test system: MOLT-4 leukemia
KM12 colon = test system: KM12 colon
MDA-MB-231 breast = test system: MDA-MB-231 breast
SW-620 colon = test system: SW-620 colon
T-47D breast = test system: T-47D breast
COLO 205 colon = test system: COLO 205 colon
SNB-75 CNS = test system: SNB-75 CNS
OVCAR-8 ovarian = test system: OVCAR-8 ovarian
SK-MEL-28 melanoma = test system: SK-MEL-28 melanoma
OVCAR-5 ovarian = test system: OVCAR-5 ovarian
CCRF-CEM leukemia = test system: CCRF-CEM leukemia
HS 578T breast = test system: HS 578T breast
SN12C renal = test system: SN12C renal
NCI/ADR-RES ovarian = test system: NCI/ADR-RES ovarian
HOP-62 NSCLC = test system: HOP-62 NSCLC
HCC-2998 colon = test system: HCC-2998 colon
ACHN renal = test system: ACHN renal
HL-60(TB) leukemia = test system: HL-60(TB) leukemia
HT29 colon = test system: HT29 colon
BT-549 breast = test system: BT-549 breast
TK-10 renal = test system: TK-10 renal
NCI-H460 lung = test system: NCI-H460 lung
MCF7 breast = test system: MCF7 breast
SF-539 CNS = test system: SF-539 CNS
UACC-257 melanoma = test system: UACC-257 melanoma
M14 melanoma = test system: M14 melanoma
MDA-MB-435 = test system: MDA-MB-435
A549 NSCLC = test system: A549 NSCLC
PC-3 prostate = test system: PC-3 prostate
786-0 renal = test system: 786-0 renal
UACC-62 melanoma = test system: UACC-62 melanoma
NCI-H522 lung = test system: NCI-H522 lung
K-562 leukemia = test system: K-562 leukemia
CAKI-1 renal = test system: CAKI-1 renal
LOX IMVI melanoma = test system: LOX IMVI melanoma
SK-MEL-2 melanoma = test system: SK-MEL-2 melanoma
A498 renal = test system: A498 renal
UO-31 renal = test system: UO-31 renal
SK-OV-3 ovarian = test system: SK-OV-3 ovarian

Measured: TGI

C[C@H]1CCCCC[C@@H]2CC(=O)CC2C(=O)CCC(=O)O1 (some centres undefined)
not listed: CAKI-1 renal | LOX IMVI melanoma | SK-MEL-2 melanoma | A498 renal | UO-31 renal | SK-OV-3 ovarian
> 100 µM: all other assays above

COc1ccc2oc(=O)c(CC=C(C)C)c(O)c2c1C
not listed: HOP-92 NSCLC | RXF 393 renal | OVCAR-4 ovarian
> 100 µM: all other assays above
